Test results taken from patent US11319300B2, “Polyfluoro-substituted aromatic heterocyclic derivative, pharmaceutical composition containing same, and applications thereof” (ZHEJIANG UNIVERSITY, priority 2017, dated 2022).

What was measured:
HCT-116 = assay: Tumour cell proliferation inhibition, MTT assay, HCT-116; type: cell-based, human
Procedure: (§1) Compound AZD5363 (NCT02208375, NCT02208375, NCT01625286), which have entered the clinical phase II study, was used as a positive control, and the compound was assayed against common tumour cell lines (human ovarian cancer cell line OVCAR-8 and human colon cancer cell line HCT-116) by MTT assay, at the same time, the akt1 enzyme inhibitory activity (IC50) was evaluated using a commercial Akt1 kit.
1) The pharmacological test method for the tumour cell proliferation inhibiting activity of the compound of the present invention was as follows:
The first was the determination of in vitro tumour growth inhibitory activity and the preliminary structure-activity relationship study, and different solid tumour cell lines were used to determine the in vitro antitumour activity of the synthesized compounds.
Experimental materials: cell lines: human ovarian cancer cells (OVCAR8), colon adenocarcinoma cells (HCT-116),
Medium: OVCAR8: RPMI 1640+fetal calf serum
Drug preparation method: dissolving the drug in DMSO to make a 50 mM of stock solution, and diluting it to a certain ratio to obtain 5 different concentrations.
Tumour Cells being Cultured In Vitro:
The selected tumour cells were incubated in a, 5% of CO2 cell incubator at 37° C., and passaged until the cell density was 70 to 90% (the adherent cells were passaged with Duck's EDTA) and used for subsequent experiments.
The compound was dissolved in dimethyl sulfoxide (DMSO), diluted, and tumour cells were seeded into 4000 cells/200 μL/well in 96-well plates, and 1 μL of compound was added to each well to a final concentration of 50 μM, 10 μM, 2 μM, and 0.4 μM. 0.08 μM were incubated in a, 5% of CO2 cell incubator at 37° C. for 72 hours with DMSO (1%) as a blank control.
The calculation formula of the cell inhibition rate is: cell inhibition rate %=(control group OD value−drug group OD value)/control cell OD value×100%, and the half inhibition concentration (IC50) was determined by the Bliss method.

786-O = assay: Tumour cell proliferation inhibition, MTT assay, 786-O; type: cell-based, human; conditions: Homo sapiens, 786-0, 72 h
AKT1/PKBα = target: T1, AKT1/PKBα (Homo sapiens, UniProt P31749); assay: Akt1 enzyme inhibitory activity, AKT1/PKBα KinEASE FP Fluorescein Green Assay; type: biochemical; conditions: fluorescence polarization kit assay; read-out: Akt1 IC50 (grade)
T1 construct: purchased
T1 sequence (P31749 whole entry): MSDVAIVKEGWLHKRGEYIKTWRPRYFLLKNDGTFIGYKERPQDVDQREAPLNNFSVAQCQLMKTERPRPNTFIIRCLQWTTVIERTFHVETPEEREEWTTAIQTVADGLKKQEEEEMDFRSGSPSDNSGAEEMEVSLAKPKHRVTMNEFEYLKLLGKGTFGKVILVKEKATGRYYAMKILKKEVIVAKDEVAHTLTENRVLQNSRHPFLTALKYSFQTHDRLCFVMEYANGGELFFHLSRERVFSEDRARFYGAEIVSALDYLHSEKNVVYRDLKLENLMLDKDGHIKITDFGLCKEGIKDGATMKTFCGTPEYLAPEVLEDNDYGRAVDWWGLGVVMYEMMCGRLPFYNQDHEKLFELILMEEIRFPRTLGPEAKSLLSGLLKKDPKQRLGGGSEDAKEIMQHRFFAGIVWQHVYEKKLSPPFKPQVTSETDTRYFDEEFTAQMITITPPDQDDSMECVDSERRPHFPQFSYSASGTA
Procedure: as §1
2) Test method for the inhibitory activity of the compound of the present invention against Akt1 enzyme:
The AKT1/PKBα KinEASE™ FP Fluorescein Green Assay (Kinase Green Fluorescence Detection System) was used to detect the inhibitory activity of the compound on AKT1/PKBα.
Fluorescence polarization detection protein kinase B employs the principle of a competitive reaction: a fluorescently labeled phosphorylated tracer and an unlabeled phosphorylated product produced by the reaction of protein kinase B will compete with the anti-serine antibody for binding. In a reaction mixture […], when a part of the fluorescent tracer binds to the antibody, it causes a higher polarization value. However, in the reaction solution mixture containing the phosphorylated product, less tracer binds to the antibody (the fluorescent tracer was replaced from the antibody) and the emitted signal was depolarized. Therefore, the change in polarization was directly related to the activity of protein kinase B in the reaction.
The compound of the present invention and the positive control AZD5363 were dissolved in dimethyl sulfoxide (DMSO) and diluted to a concentration of 50 μM. At room temperature, 0.25 μl of the compound sample and the positive control at a concentration of 50 μM were taken and added to the 384-well plate, and three parallel wells were set for each sample, and then 10 μl of STK Substrate 3, Working Solution, 5 μl AKT1/PKBα Working Solution, 10 μl ATP Working Solution were added to each sample well plate with vibrating gently and shaking for a few minutes. The reaction starts after 10 μl of ATP Working Solution was added to the well, and the reaction was timed at room temperature for 1 hour. After one hour, 5 μl of STK Stop Mix and 5 μl of STK Antibody Mix were added to each well respectively to stop the reaction. After the addition completes, it was allowed to stand at room temperature for four hours, and the polarization value of the sample was detected by the fluorescence polarization of the microplate reader (it was effective to detect its signal within 24 hours), and the inhibition rate of the compound was calculated by the polarization value, and then IC50 was calculated.
Four sets of controls were set in the experiment, namely Buffer Control Wells, Tracer Control Wells, No Enzyme Wells, and a blank dimethyl sulfoxide control. The resulting data was used to calculate the inhibition rate.
The activity of the compound was divided into three grades according to the size of the IC50 of the Akt inhibitory activity: “+++”, 1 nM<IC50<10 nM; “++”, 10 nM<IC50<50 nM; “+”, 50 nM<IC50.

CEM-C1 = assay: Tumour cell proliferation inhibition, MTT assay, CEM-C1; type: cell-based, human; conditions: Homo sapiens, CEM/C1, 72 h
HGC27 = assay: Tumour cell proliferation inhibition, MTT assay, HGC27; type: cell-based, human
MCF-7 = assay: Tumour cell proliferation inhibition, MTT assay, MCF-7; type: cell-based, human
[1] = Oral pharmacokinetic experiment in SD rats; type: in vivo; conditions: oral administration
Procedure: […] The blood sampling times of the tail vein administered by intragastric administration were 0.25, 0.5, 1, 2, 4, 6, 8, 10, 24 hours; the times of blood collection by intravenous administration were 0.05, 0.1, 0.17, 0.5, 1, 2, 4, 6, 8, 10, 24 hours. 0.3 ml of whole blood was taken, and after centrifugation, 0.1 ml of plasma was taken and analysed by LC-MS.

[2] = rat, in vivo, 20 mg/kg, mean n = 3

Row | SMILES | IC50 (AKT1/PKBα) | IC50 (CEM-C1) | IC50 (HGC27; Homo sapiens, HGC-27, 72 h) | further results
1 | Cn1nccc1-c1ccc(C(=O)N[C@@H]2CNCC[C@H]2c2ccc(F)c(F)c2)c(F)c1 (racemic) [VII-32] | 1 to 10 nM | 70 nM | 60 nM | IC50 (HCT-116; Homo sapiens, HCT-116, 72 h): 980 nM; IC50 (786-O): 910 nM; IC50 (MCF-7; Homo sapiens, MCF7, 72 h): 1980 nM
2 | Cn1nccc1-c1ccc(C(=O)N[C@H]2CNCC[C@@H]2c2ccc(F)c(F)c2)c(F)c1 [VII-1b, 4-(1-methyl-1H-pyrazole-yl)-N-((3R,4R)-(3,4-difluorophenyl)piperidin-3-yl)-2-fluorobenzamide] | 10 to 50 nM |  |  | 
3 | Cn1ncc(Cl)c1-c1ccc(C(=O)N[C@@H]2CNCC[C@H]2c2ccc(F)c(F)c2)c(F)c1 [VII-2, 4-(1-methyl-4-chloro-1H-pyrazole-yl)-N-((3S,4S)-(3,4-difluorophenyl)piperidin-3-yl)-2-fluorobenzamide] | 10 to 50 nM |  | 70 nM | 
4 | Cc1cnn(C)c1-c1ccc(C(=O)N[C@@H]2CNCC[C@H]2c2ccc(F)c(F)c2)c(F)c1 [VII-3, 4-(1,4-dimethyl-1H-pyrazole-yl)-N-((3S,4S)-4-(3,4-difluorophenyl)piperidin-3-yl)-2-fluorobenzamide] | 10 to 50 nM | 160 nM | 90 nM | 
5 | Cn1ncc(C2CC2)c1-c1ccc(C(=O)N[C@@H]2CNCC[C@H]2c2ccc(F)c(F)c2)c(F)c1 [VII-4] | > 50 nM |  |  | 
6 | Cn1ncc(Br)c1-c1ccc(C(=O)N[C@@H]2CNCC[C@H]2c2ccc(F)c(F)c2)c(F)c1 [VII-6, 4-(1-methyl-4-bromo-1H-pyrazole-yl)-N-((3S,4S)-(3,4-difluorophenyl)piperidin-3-yl)-2-fluorobenzamide] | 10 to 50 nM | 150 nM | 40 nM | 
7 | Cn1ncc(F)c1-c1ccc(C(=O)N[C@@H]2CNCC[C@H]2c2ccc(F)c(F)c2)c(F)c1 [VII-7] | 10 to 50 nM | 90 nM | 60 nM | IC50 (HCT-116; Homo sapiens, HCT-116, 72 h): 2390 nM; IC50 (786-O): 990 nM; IC50 (MCF-7; Homo sapiens, MCF7, 72 h): 2840 nM
8 | Cn1nccc1-c1ccc(C(=O)N[C@@H]2CNCC[C@H]2c2c(F)c(F)cc(F)c2F)c(F)c1 [VII-9, 4-(1-methyl-1H-pyrazole-yl)-N-((3S,4S)-(2,3,5,6-tetrafluorophenyl)piperidin-3-yl)-2-fluorobenzamide] | 10 to 50 nM | 210 nM | 80 nM | 
9 | Cn1nccc1-c1cc(F)c(C(=O)N[C@@H]2CNCC[C@H]2c2ccc(F)c(F)c2)c(F)c1F [VII-13, 4-(1-methyl-1H-pyrazole-yl)-N-((3S,4S)-4-(3,4-difluorophenyl)piperidin-3-yl)-2,3,6-trifluorobenzamide] | > 50 nM |  |  | 
10 | Cn1nccc1-c1cc(F)c(C(=O)N[C@@H]2CNCC[C@H]2c2ccc(F)c(F)c2)c(Cl)c1 [VII-14] | 10 to 50 nM | 180 nM | 100 nM | 
11 | Cc1cc(-c2ccnn2C)cc(F)c1C(=O)N[C@@H]1CNCC[C@H]1c1ccc(F)c(F)c1 [VII-15, 4-(1-methyl-1H-pyrazole-yl)-N-((3S,4S)-4-(3,4-difluorophenyl)piperidin-3-yl)-2-methyl-6-fluorobenzamide] | > 50 nM |  |  | 
12 | Cn1nccc1-c1cc(F)c(C(=O)N[C@@H]2CNCC[C@H]2c2ccc(F)c(F)c2)c(C(F)(F)F)c1 [VII-16, 4-(1-methyl-1H-pyrazole-yl)-N-((3S,4S)-4-(3,4-difluorophenyl)piperidin-3-yl)-2-trifluoromethyl-6-fluorobenzamide] | 10 to 50 nM | 110 nM | 80 nM | 
13 | Cn1nccc1-c1ccc(C(=O)N[C@@H]2CNCC[C@H]2c2ccc(F)c(F)c2)c(F)c1F [VII-17, 4-(1-methyl-1H-pyrazole-yl)-N-((3S,4S)-4-(3,4-difluorophenyl)piperidin-3-yl)-2,3-difluorobenzamide] | 10 to 50 nM | 90 nM | 40 nM | 
14 | Cn1ncc(Cl)c1-c1ccc(C(=O)N[C@@H]2CNC[C@H]2c2ccc(F)c(F)c2)c(F)c1 [VII-19, 4-(1-methyl-4-chloro-1H-pyrazole-yl)-N-((3S,4R)-(3,4-difluorophenyl)pyrrolidin-3-yl)-2-fluorobenzamide] | 10 to 50 nM | 60 nM | 20 nM | 
15 | Cn1nccc1-c1cc(F)c(C(=O)N[C@@H]2CNC[C@H]2c2ccc(F)c(F)c2)c(F)c1 [VII-21, 4-(1-methyl-1H-pyrazole-yl)-N-((3S,4R)-(3,4-difluorophenyl)pyrrolidin-3-yl)-2,6-difluorobenzamide] | 10 to 50 nM | 150 nM | 80 nM | 
16 | Cn1nccc1-c1ccc(S(=O)(=O)N[C@@H]2CNCC[C@H]2c2ccc(F)c(F)c2)c(F)c1 [VII-23, N-((3S,4S)-4-(3,4-difluorophenyl)piperidin-3-yl)-2-fluoro-4-(1-methyl-1H-pyrazol-5-yl)benzenesulfonamide] | > 50 nM |  |  | 
17 | Cn1ncnc1-c1ccc(C(=O)N[C@@H]2CNCC[C@H]2c2ccc(F)c(F)c2)c(F)c1 [VII-26] | 10 to 50 nM | 70 nM | 70 nM | 
18 | CCn1nccc1-c1ccc(C(=O)N[C@@H]2CNCC[C@H]2c2ccc(F)c(F)c2)c(F)c1 [VII-27, 4-(1-ethyl-1H-pyrazole-yl)-N-((3S,4S)-4-(3,4-difluorophenyl)piperidin-3-yl)-2-fluorobenzamide] | 10 to 50 nM | 130 nM | 90 nM | 
19 | O=C(N[C@@H]1CNCC[C@H]1c1ccc(F)c(F)c1)c1ccc(-c2ccnn2C2CC2)cc1F [VII-28, 4-(1-cyclopropyl-1H-pyrazol-yl)-N-((3S,4S)-4-(3,4-difluorophenyl)piperidin-3-yl)-2-fluorobenzamide] | 10 to 50 nM | 100 nM | 50 nM | 
20 | [2H]C([2H])([2H])n1nccc1-c1ccc(C(=O)N[C@@H]2CNCC[C@H]2c2ccc(F)c(F)c2)c(F)c1 [VII-29, 4-(1-(methyl-d3)-1H-pyrazol-yl)-N-((3S,4S)-4-(3,4-difluorophenyl)piperidin-3-yl)-2 fluorobenzamide] | 10 to 50 nM | 60 nM | 40 nM | 
21 | Cn1nccc1-c1ccc(C(=O)N[C@@H]2CNCC[C@H]2c2ccc(F)c(F)c2)c(F)c1.O=C(O)C[C@H](O)C(=O)O [VII-30, L-malate] | 1 to 10 nM | 80 nM |  | IC50 (HCT-116; 72 hours, L-malate): 1990 nM; IC50 (786-O): 550 nM; IC50 (HGC27; 72 hours, L-malate): 30 nM; IC50 (MCF-7; 72 hours, L-malate): 1580 nM
22 | Cn1nccc1-c1ccc(C(=O)N[C@@H]2CNCC[C@H]2c2ccc(F)c(F)c2)c(F)c1.O=C(O)C(O)C(O)C(=O)O [VII-33] |  |  |  | 1/2 ([1]; 20 mg/kg, mean n = 3): 3.69 h; AUC0-inf ([1]; 20 mg/kg, mean n = 3): 2160 ng·h/mL; AUC0-t ([1]; 20 mg/kg, mean n = 3): 1950 ng·h/mL; improvement of AUC0-t over VII-1a ([1]; salt versus free form VII-1a): 30%; Cmax [1, 2]: 200 ng/mL; Tmax [1, 2]: 4 h
